By IC50 is commonly meant the concentration at which inhibition is half-maximal.

The target in this test is CDK2/CyclinE1 (Homo sapiens (Human), UniProt P24941). The test can be described thus: CDK2 kinase assay (TR-FRET). It counts as biochemical. The conditions noted are these: CDK2/CyclinE1 0.5 nM, ATP 50 μM. Here is the method: The purpose of these assays is to evaluate the inhibition of small molecule inhibitors by using TR-FRET assay.
Compound Preparation. Dissslove the compounds into DMSO solution to make 10 mM DMSO stock. Serially dilute the stock solution from highest concentration down to lowest in DMSO to make the compound stock plate (100× stock plates). To make 5× compound intermediate plate, add 38 μL of assay buffer (50 mM HEPES, pH 7.5, 0.05 mg/mL BSA, 10 mM MgCl2, 1 mM EGTA, 0.01% Tween-20, 2 mM DTT) into each well of the V-bottom plate; then transfer 2 μL of the stock compound solution of each concentration from the compound stock plate (100× stock), and mix well.
Enzyme reaction. Transfer 2 μL compound from 5× intermediate plate into assay plate, then add 4 μL/well 2.5× Enzyme mix to assay plate, incubation for 10 min at room temperature. For positive control wells, add 4 μL/well assay buffer instead of Enzyme mix. Then add 4 μL/well 2.5× Substrate mix to assay plate, and incubation at 25° C. for 30 min at room temperature. After reaction, 10 μL 2× Detection mix (final 15 mM EDTA, 1× LANCE Detection Buffer, 0.5 nM Detection antibody) was added and incubated for 1 h prior to detection with excitation and emission at 320 and 665 nm (Tecan Spark® TR-FRET mode Tecan).
Inhibition rate (IR) of the tested compounds was determined by the following formula: IR (%)=(average High control−compound well)/(average High control−average Low control)*100%. Fit the compound IC50 from non-linear regression equation: Y=Bottom+(Top−Bottom)/(1+10^((Log IC50−X)*HillSlope)). X: Log of cpd concentration; Y: Inhibition rate (TR); Top and Bottom: Plateaus in same units as Y, log IC50: same log units as X; HillSlope: Slope factor or Hill slope.
As to `CC(C)NC(=O)O[C@@H]1CC[C@H](c2cc(NC(=O)[C@H]3C[C@@H]3COC(C)C)n[nH]2)C1` [Compound 45], 2.7 nM corresponded to half-maximal inhibition (IC50).
The molecule `CC1(NC(=O)O[C@@H]2CC[C@H](c3cc(NC(=O)[C@@H]4CCN(S(C)(=O)=O)C4)n[nH]3)C2)CCC1` [Compound 119] returned an IC50 of 0.4 nM.
To `Cc1cc(C(=O)Nc2cc([C@@H]3C[C@H](OC(=O)NC(C)C)CO3)[nH]n2)n(C)n1` [Compound 91] belongs 19.1 nM; to `Cn1nccc1C(=O)Nc1cc([C@H]2C[C@@H](OC(=O)NC3(CF)CCC3)CO2)[nH]n1` [Compound 211], 1.4 nM; to `C#C[C@H]1C[C@@H]1C(=O)Nc1cc([C@@H]2CC[C@H](OC(=O)NC3(C)CCC3)C2)[nH]n1` [Compound 219], 0.5 nM.
As for `CC(C)NC(=O)O[C@@H]1CC[C@H](c2cc(NC(=O)C3CC3c3cnn(C)c3)n[nH]2)C1` (single isomer, unassigned) [Compound 209], inhibition was half-maximal at 29 nM (IC50).
Consider `C#C[C@H]1C[C@@H]1C(=O)Nc1cc([C@@H]2C[C@H](OC(=O)N[C@@H](C)CC)CO2)[nH]n1` [Compound 156], for which the IC50 worked out at 6 nM.
In turn, `Cn1nccc1C(=O)Nc1cc([C@H]2CC[C@@H](OC(=O)NC34CCC(CC3)OC4)C2)[nH]n1` [Compound 42] registered an IC50 of 4.4 nM. This IC50 and that of the molecule before are within 1.5-fold of each other.
With `CC(C)NC(=O)O[C@@H]1CC[C@H](c2cc(NC(=O)[C@H]3CCN(C(=O)C(C)C)C3)n[nH]2)C1` [Compound 14], half-maximal inhibition (IC50) was put at 1.7 nM.
To `CC(C)NC(=O)O[C@@H]1COC(c2cc(NC(=O)Cc3ccc(OCCN4CCCC4)cc3)n[nH]2)C1` (stereo partly shown) [Compound 128] belongs 14.6 nM; to `C#C[C@H]1C[C@@H]1C(=O)Nc1cc([C@@H]2CC[C@H](OC(=O)NC3(C)COC3)C2)[nH]n1` [Compound 222], 1.1 nM; to `CC(C)NC(=O)O[C@H]1CO[C@@H](c2cc(NC(=O)c3ccnn3CC(F)F)n[nH]2)C1` [Compound 92], 2 nM.
Regarding `C#C[C@H]1C[C@@H]1C(=O)Nc1cc([C@@H]2C[C@H](OC(=O)NC(C)(C)C)CO2)[nH]n1` [Compound 167], inhibition was half-maximal at 1.4 nM (IC50).
`CC(C)NC(=O)O[C@@H]1CC[C@H](c2cc(NC(=O)C3CC34CCOC4)n[nH]2)C1` (stereo partly shown) [Compound 176] gave a half-inhibitory concentration (IC50) of 33 nM.
To `COC(C)[C@H]1C[C@@H]1C(=O)Nc1cc([C@H]2CC[C@@H](OC(=O)NC3(C)CC3)C2)[nH]n1` (single isomer, unassigned) [Compound 220] belongs 1.5 nM; to `Cn1nc(C2CC2)cc1C(=O)Nc1cc([C@H]2CC[C@@H](OC(=O)NC3COC4(CCC4)C3)C2)[nH]n1` (single isomer, unassigned) [Compound 48], 10.7 nM; to `COCc1cc(F)cc(CC(=O)Nc2cc([C@@H]3C[C@H](OC(=O)NC(C)C)CO3)[nH]n2)c1` [Compound 104], 17.5 nM.
To `CC(C)NC(=O)O[C@H]1CO[C@@H](c2cc(NC(=O)Cc3ccccc3S(C)(=O)=O)n[nH]2)C1` [Compound 134] belongs 2.2 nM.
With `Cc1c(C2CC2C(=O)Nc2cc([C@H]3CC[C@@H](OC(=O)NC(C)C)C3)[nH]n2)cnn1C` (stereo partly shown) [Compound 162] the figure was 109 nM; with `CC(C)NC(=O)O[C@@H]1CC[C@H](C2=CC(NC(=O)[C@H]3C[C@@H]3[C@@H](C)O)=NC2)C1` [Compound 137], 5.3 nM.
In the case of `C#C[C@H]1C[C@@H]1C(=O)Nc1cc([C@H]2CC[C@@H](OC(=O)NC34CC(F)(C3)C4)C2)[nH]n1` [Compound 194], inhibition was half-maximal at 0.7 nM (IC50). This IC50 is about 7.6-fold lower than that of the molecule before.
With `CC1(NC(=O)O[C@@H]2CC[C@H](c3cc(NC(=O)[C@@H]4CCN(S(C)(=O)=O)C4)n[nH]3)C2)CC1` [Compound 83] the figure was 1.1 nM; with `CC(C)NC(=O)OC1COC(c2cc(NC(=O)c3ccnn3C)n[nH]2)C1` (stereo not shown) [Compound 26], 3.7 nM.
To `CC1(NC(=O)O[C@@H]2CC[C@H](c3cc(NC(=O)C4CC4C#N)n[nH]3)C2)CC1` (single isomer, unassigned) [Compound 212] belongs 2.1 nM.
To `Cc1c(C2CC2C(=O)Nc2cc([C@@H]3CC[C@H](OC(=O)NC(C)C)C3)[nH]n2)cnn1C` (single isomer, unassigned) [Compound 207] belongs 40.1 nM; to `Cc1cc(CC(=O)Nc2cc([C@H]3CC[C@@H](OC(=O)NC4COC5(CCC5)C4)C3)[nH]n2)on1` (single isomer, unassigned) [Compound 39], 4 nM; to `CC(C)NC(=O)O[C@@H]1CO[C@H](c2cc(NC(=O)Cc3cc(F)cc(C#N)c3)n[nH]2)C1` [Compound 116], 4.5 nM.
Regarding `C#C[C@H]1C[C@@H]1C(=O)Nc1cc([C@H]2C[C@@H](OC(=O)NC3(C)COC3)CO2)[nH]n1` [Compound 182], the IC50 amounted to 4 nM.
Take `Cc1c(C2CC2C(=O)Nc2cc([C@H]3CC[C@@H](OC(=O)NC4(C)CC4)C3)[nH]n2)cnn1C` (single isomer, unassigned) [Compound 205]: the IC50 worked out at 24 nM.
Regarding `CC[C@H](C)NC(=O)O[C@@H]1CC[C@H](c2cc(NC(=O)[C@@H]3CCN(S(C)(=O)=O)C3)n[nH]2)C1` [Compound 59], 4.9 nM corresponded to half-maximal inhibition (IC50). This IC50 is about 4.9-fold lower than that of the molecule before.
With `CC(C)NC(=O)O[C@@H]1CC[C@H](c2cc(NC(=O)C3CC4CCC3O4)n[nH]2)C1` (single isomer, unassigned) [Compound 146] the figure was 44.3 nM; with `CCc1cc(C(=O)Nc2cc([C@H]3C[C@@H](OC(=O)NC(C)C)CO3)[nH]n2)n(C)n1` [Compound 79], 7.6 nM; with `CC(C)NC(=O)OC1COC(c2cc(NC(=O)Cc3ccccc3C(F)(F)F)n[nH]2)C1` (stereo not shown) [Compound 65], 97.3 nM.
With `Cn1nc(C2CC2)cc1C(=O)Nc1cc([C@H]2CC[C@@H](OC(=O)NC3COC4(CCC4)C3)C2)[nH]n1` (single isomer, unassigned) [Compound 47] the figure was 64 nM; with `COC[C@H]1C[C@@H]1C(=O)Nc1cc([C@H]2CC[C@@H](OC(N)=O)C2)[nH]n1` [Compound 40], 47.7 nM; with `COC[C@H]1C[C@@H]1C(=O)Nc1cc([C@H]2CC[C@@H](OC(=O)NC(C)C(F)F)C2)[nH]n1` (single isomer, unassigned) [Compound 107], 3 nM.
As for `CC(C)(C)NC(=O)O[C@@H]1CC[C@H](c2cc(NC(=O)C3CC3C#N)n[nH]2)C1` (single isomer, unassigned) [Compound 187], the IC50 was 1.4 nM.
With `CC(C)(C)NC(=O)O[C@@H]1CC[C@H](c2cc(NC(=O)C3CC3C#N)n[nH]2)C1` (single isomer, unassigned) [Compound 188] the figure was 0.6 nM; with `CC(C)NC(=O)O[C@@H]1CO[C@H](c2cc(NC(=O)Cc3ccccc3S(C)(=O)=O)n[nH]2)C1` [Compound 135], 13.5 nM; with `CC(C)NC(=O)O[C@@H]1CC[C@H](c2cc(NC(=O)[C@H]3CCN(C(=O)C(C)C)C3)n[nH]2)C1` [Compound 31], 8.1 nM.
To `CC(C)NC(=O)O[C@@H]1CC[C@H](c2cc(NC(=O)C3CN(S(=O)(=O)C4CC4)CC3C)n[nH]2)C1` (stereo partly shown) [Compound 172] belongs 1.2 nM; to `COCc1cc(C(=O)Nc2cc([C@H]3CC[C@@H](OC(=O)N[C@H]4C[C@@]5(CCOC5)C4)C3)[nH]n2)n(C)n1` [Compound 201], 4.6 nM.
Molecule `CC(C)NC(=O)O[C@@H]1CC[C@H](c2cc(NC(=O)[C@H]3C[C@@H]3COC(F)F)n[nH]2)C1` [Compound 105] registered an IC50 of 1.1 nM.

These data come from patent publication US20250195475A1, “CDK2 INHIBITOR AND PREPARATION METHOD AND USE THEREOF” (INVENTISBIO CO., LTD., priority 2022, published 2025).
